The results in this text go back to patent publication US8354436B2 (4SC Discovery GmbH, priority 2011, dated 2013).

Read-outs that look alike come from different tables or passages of the source. Bounds are passed on as bounds.

Common to all, as to assay type: cell-based
Common to all, as to conditions: 48 hours

The subject of one assay is IL-17FF. Description: IL-17FF production by PHA-stimulated human PBMC (human IL-17F ELI-Pair). The protocol:
Analysis of Proliferation of and Cytokine Production by Human PBMC Stimulated with PHA
Peripheral blood mononuclear cells (PBMC) from healthy human donors were purified using Accuspin™ System-Histopaque-1077 (Sigma) according to the protocol recommended by the manufacturer. Purified PBMC were then washed twice with phosphate-buffered saline (PBS) and resuspended in RPMI1640 culture medium supplemented with 10% dialyzed heat inactivated fetal calf serum, 1.5 mM L-glutamine, 100 U penicillin/ml, and […] (all from PAN Biotech, Aidenbach, Germany). For stimulation, PBMC were seeded at 1×10^5 cells/well, activated with 2 μg/ml phytohaemagglutinin (PHA, Sigma) and incubated with the test compounds for 48 hours. IL-17A, IL-17F and INF-γ were then determined in the culture supernatant using a Luminex BioPlex system, following the manufacturer's instructions (BioRad, Munich, Germany). For screening, compounds were used at 10, 1, 0.1 and 0.01 μM. To determine the IC50, compounds were titrated semilogarithmically.
Cytokines were determined in the aforementioned culture supernatant using the following methods: IL-17AA/AF was measured using the Luminex BioPlex system (BioRad, Munich, Germany); IL-17AA using the human homodimer IL-17A ELISA Ready Set Go Kit from eBioscience (Frankfurt, Germany); IL-17FF using the human IL-17F ELI-Pair from Hölzel DiagnosticaGmBH (Köln, Germany); and IFN-γ using the OptEIA human IFN-g ELISA from BD Bioscience (Heidelberg, Germany), all following the manufacturer's instructions.

The next assay has as its system IFN-γ. Description: IFN-γ production by PHA-stimulated human PBMC (OptEIA human IFN-g ELISA). The gist of the method:
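Compounds tested on PHA (2 μg/ml)-stimulated human PBMC, 1×10^5 cells/well, 48 h, at 10, 1, 0.1 and 0.01 μM or semilog titration for IC50. Cytokines in culture supernatant: IL-17AA/AF by Luminex BioPlex; IL-17AA, IL-17FF, IFN-γ by separate ELISAs.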

The subject of assay [1] is PBMC from healthy human donors. Description: T cell proliferation assay (PHA-stimulated human PBMC, BrdU ELISA). The gist of the method: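 Proliferation was quantified by BrdU ELISA 48 hours after starting culture of 1×10⁵ human PBMC per well with test compound and 2 μg/ml phytohaemagglutinin. Cells came from healthy donors via Ficoll separation and were kept in RPMI1640 with 10% dialysed heat-inactivated FCS.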
A general note: Uptake of a labelled nucleoside into DNA is a usual measure of proliferation.

Where [2] appears, read: human PBMC, 2 μg/ml PHA, read-out: B: IC50 (IL-17FF).
Where [3] appears, read: human PBMC, 2 μg/ml PHA, read-out: C: IC50 (IFNγ).
Setting [4] is: human PBMC, 2 μg/ml PHA, read-out: D: IC50 (Tcell proliferation).
Setting [5] is: PHA-stimulated human PBMC, column B, read-out: IC50 (IL-17FF).
The mark [6] stands for this setting: PHA-stimulated human PBMC, column C, read-out: IC50 (IFNγ).
The mark [7] stands for this setting: PHA-stimulated human PBMC, column D, read-out: IC50 (Tcell proliferation).

Take `Fc1cccc(Cl)c1-c1noc(-c2cnn(-c3ccncc3)c2C(F)(F)F)c1-c1nnco1` [Example B-16, 2-(3-(2-chloro-6-fluorophenyl)-5-(1-(pyridin-4-yl)-5-(trifluoromethyl)-1H-pyrazol-4-yl)isoxazol-4-yl)-1,3,4-oxadiazole]: the IC50 (with IL-17FF (setting [2]); in the assay with IFN-γ (setting [3]); in assay [1] (setting [4])) was 100 to 1000 nM throughout.
With `N#Cc1c(-c2c(F)cccc2Cl)noc1-c1cnn(-c2cccc(F)c2)c1C(F)(F)F` [Example I-120, 3-(2-chloro-6-fluorophenyl)-5-(1-(3-fluorophenyl)-5-(trifluoromethyl)-1H-pyrazol-4-yl)isoxazole-4-carbonitrile], the IC50 (in the assay on IL-17FF (setting [5]); in the assay on IFN-γ (setting [6]); in assay [1] (setting [7])) was 100 to 1000 nM each time.
As to `CC(C)OC(=O)c1c(-c2c(F)cccc2Cl)noc1-c1cnn(-c2cccc(Cl)c2)c1C(F)(F)F` [IB-31, isopropyl 3-(2-chloro-6-fluorophenyl)-5-(1-(3-chlorophenyl)-5-(trifluoromethyl)-1H-pyrazol-4-yl)isoxazole-4-carboxylate], the IC50 (in the assay with IL-17FF (setting [5]); in the assay on IFN-γ (setting [6]); in assay [1] (setting [7])) was < 10 nM in each case.
`Oc1csc(-c2c(-c3c(F)cccc3Cl)noc2-c2cnn(-c3cccc(F)c3)c2C(F)(F)F)n1` [Example 9, 2-(3-(2-chloro-6-fluorophenyl)-5-(1-(3-fluorophenyl)-5-(trifluoromethyl)-1H-pyrazol-4-yl)isoxazol-4-yl)thiazol-4-ol]: the IC50 (with IL-17FF (setting [2]); in the assay with IFN-γ (setting [3]); in assay [1] (setting [4])) was 100 to 1000 nM each time.
In the case of `CNC(=O)c1c(-c2ccccc2Cl)noc1-c1cnn(-c2cccc(F)c2)c1C(F)(F)F` [Example I-96, 3-(2-chlorophenyl)-5-(1-(3-fluorophenyl)-5-(trifluoro-methyl)-1H-pyrazol-4-yl)-N-methylisoxazole-4-carboxamide], the IC50 (in the assay with IL-17FF (setting [5]); with IFN-γ (setting [6]); in assay [1] (setting [7])) was 100 to 1000 nM throughout.
Take `Fc1cccc(Cl)c1-c1noc(-c2cnn(-c3cccc(Cl)c3)c2C(F)(F)F)c1Br` [Example I-140, 4-bromo-3-(2-chloro-6-fluorophenyl)-5-(1-(3-chlorophenyl)-5-(trifluoromethyl)-1H-pyrazol-4-yl)isoxazole]: the IC50 in the assay with IL-17FF (setting [5]) was < 10 nM; with IFN-γ (setting [6]), < 10 nM; in assay [1] (setting [7]), 10 to 100 nM.
Take `CCOC(=O)c1c(-c2ccc(Cl)cc2)noc1-c1cnn(-c2cccc(Cl)c2)c1C(F)(F)F` [Example I-77, ethyl 3-(4-chlorophenyl)-5-(1-(3-chlorophenyl)-5-(trifluoromethyl)-1H-pyrazol-4-yl)isoxazole-4-carboxylate]: the IC50 (with IL-17FF (setting [5]); in assay [1] (setting [7])) was 1000 to 10000 nM in each case.
With `CCOC(=O)c1c(-c2onc(-c3c(F)cccc3Cl)c2C(=O)OC)cnn1-c1cccc(Cl)c1Cl` [Example I-9, methyl 3-(2-chloro-6-fluorophenyl)-5-(1-(2,3-dichlorophenyl)-5-(ethoxycarbonyl)-1H-pyrazol-4-yl)isoxazole-4-carboxylate], the IC50 (in the assay with IL-17FF (setting [5]); in assay [1] (setting [7])) was 1000 to 10000 nM each time.
Take `O=CNc1c(-c2c(F)cccc2Cl)noc1-c1cnn(-c2cccc(Cl)c2)c1C(F)(F)F` [IB-48, N-(3-(2-chloro-6-fluorophenyl)-5-(1-(3-chlorophenyl)-5-(trifluoromethyl)-1H-pyrazol-4-yl)isoxazol-4-yl)formamide]: the IC50 (with IL-17FF (setting [5]); in assay [1] (setting [7])) was 1000 to 10000 nM each time.
For the molecule `CCOC(=O)c1c(-c2c(F)cccc2Cl)noc1-c1cnn(Cc2ccccn2)c1C(F)(F)F` [IB-104, ethyl 3-(2-chloro-6-fluorophenyl)-5-(1-(pyridin-2-ylmethyl)-5-(trifluoromethyl)-1H-pyrazol-4-yl)isoxazole-4-carboxylate], the IC50 in the assay with IL-17FF (setting [5]) and with IFN-γ (setting [6]) was 1000 to 10000 nM in each case.
As to `O=C(c1c(-c2c(F)cccc2Cl)noc1-c1cnn(-c2ccccc2F)c1C(F)(F)F)N1CCCC1` [Example I-22, (3-(2-chloro-6-fluorophenyl)-5-(1-(2-fluorophenyl)-5-(trifluoromethyl)-1H-pyrazol-4-yl)isoxazol-4-yl)(pyrrolidin-1-yl)methanone], the IC50 in the assay with IL-17FF (setting [5]) and in the assay on IFN-γ (setting [6]) was 100 to 1000 nM in each case.
Consider `CC(=O)Nc1cccc(-n2ncc(-c3onc(-c4c(F)cccc4Cl)c3C(=O)N3CCCO3)c2C(F)(F)F)c1` [IB-88, N-(3-(4-(3-(2-chloro-6-fluorophenyl)-4-(isoxazolidine-2-carbonyl)isoxazol-5-yl)-5-(trifluoromethyl)-1H-pyrazol-1-yl)phenyl)acetamide], for which the IC50 in the assay with IL-17FF (setting [5]) and in the assay with IFN-γ (setting [6]) was 1000 to 10000 nM each time.
With `COc1cc(OC)c(CNC(=O)c2c(-c3c(F)cccc3Cl)noc2-c2cnn(-c3ccccc3F)c2C(F)(F)F)c(OC)c1` [Example I-2, 3-(2-chloro-6-fluorophenyl)-5-(1-(2-fluorophenyl)-5-(trifluoromethyl)-1H-pyrazol-4-yl)-N-(2,4,6-trimethoxyben-zyl)isoxazole-4-carboxamide], the IC50 in the assay with IL-17FF (setting [5]) and with IFN-γ (setting [6]) was 1000 to 10000 nM each time.
Consider `CNC(=O)c1c(-c2c(F)cccc2Cl)noc1-c1cnn(-c2ccncc2)c1C(F)(F)F` [IB-58, 3-(2-chloro-6-fluorophenyl)-N-methyl-5-(1-(pyridin-4-yl)-5-(trifluoromethyl)-1H-pyrazol-4-yl)isoxazole-4-carboxamide], for which the IC50 with IL-17FF (setting [5]) and with IFN-γ (setting [6]) was 1000 to 10000 nM throughout.
As for `CON(C)C(=O)c1c(-c2c(F)cccc2Cl)noc1-c1cnn(-c2cccc(NC(C)=O)c2)c1C(F)(F)F` [IB-87, 5-(1-(3-acetamidophenyl)-5-(trifluoromethyl)-1H-pyrazol-4-yl)-3-(2-chloro-6-fluorophenyl)-N-methoxy-N-methylisoxazole-4-carboxamide], the IC50 with IL-17FF (setting [5]) and in the assay on IFN-γ (setting [6]) was 1000 to 10000 nM throughout.
For the molecule `CCOC(=O)c1c(-c2ccc(OC)cc2)noc1-c1cnn(-c2cccc(F)c2)c1C(F)(F)F` [Example I-100, ethyl 5-(1-(3-fluorophenyl)-5-(trifluoromethyl)-1H-pyrazol-4-yl)-3-(4-methoxyphenyl)isoxazole-4-carboxylate], the IC50 with IL-17FF (setting [5]) and in the assay on IFN-γ (setting [6]) was 1000 to 10000 nM in each case.
As for `COC(=O)c1sccc1-n1ncc(-c2onc(-c3c(F)cccc3Cl)c2C(=O)OC)c1C(F)(F)F` [Example I-14, methyl 3-(2-chloro-6-fluorophenyl)-5-(1-(2-(methoxycarbonyl)thiophen-3-yl)-5-(trifluoromethyl)-1H-pyrazol-4-yl)isoxazole-4-carboxylate], the IC50 in the assay on IL-17FF (setting [5]) lay within 10 to 100 nM; in the assay with IFN-γ (setting [6]), 100 to 1000 nM.
For the molecule `CC(=O)Nc1cccc(-n2ncc(-c3onc(-c4c(F)cccc4Cl)c3-c3nnc(C)o3)c2C(F)(F)F)c1` [Example B-11, N-(3-(4-(3-(2-chloro-6-fluorophenyl)-4-(5-methyl-1,3,4-oxadiazol-2-yl)isoxazol-5-yl)-5-(trifluoromethyl)-1H-pyrazol-1-yl)phenyl)acetamide], the figures for the IC50 in the assay on IL-17FF (setting [2]) and with IFN-γ (setting [3]) were 1000 to 10000 nM and 100 to 1000 nM, respectively.
Turning to `CCOC(=O)c1c(-c2c(F)cccc2Cl)noc1-c1cnn(Cc2ccncc2)c1C(F)(F)F` [IB-85, ethyl 3-(2-chloro-6-fluorophenyl)-5-(1-(pyridin-4-ylmethyl)-5-(trifluoromethyl)-1H-pyrazol-4-yl)isoxazole-4-carboxylate], the IC50 in the assay with IL-17FF (setting [5]) and in the assay on IFN-γ (setting [6]) was 1000 to 10000 nM in each case.
As for `CN(C)C(=O)c1c(-c2c(F)cccc2Cl)noc1-c1cnn(-c2ccccc2F)c1C(F)(F)F` [Example I-20, 3-(2-chloro-6-fluorophenyl)-5-(1-(2-fluorophenyl)-5-(trifluoromethyl)-1H-pyrazol-4-yl)-N,N-dimethylisoxazole-4-carboxamide], the IC50 in the assay with IL-17FF (setting [5]) and in the assay on IFN-γ (setting [6]) was 1000 to 10000 nM each time.
Regarding `COC(=O)c1c(-c2c(F)cccc2Cl)noc1-c1cnn(-c2ccc([N+](=O)[O-])cc2)c1C(F)(F)F` [Example I-69, methyl 3-(2-chloro-6-fluorophenyl)-5-(1-(4-nitrophenyl)-5-(trifluoromethyl)-1H-pyrazol-4-yl)isoxazole-4-carboxylate], the IC50 in the assay on IL-17FF (setting [5]) and in the assay on IFN-γ (setting [6]) was 1000 to 10000 nM each time.
